Results published in article PMC8762706, “Design of Coibamide A Mimetics with Improved Cellular Bioactivity” (ACS Medicinal Chemistry Letters, 2021).
Where two headings read alike, the source gives them in different places. Where a SMILES comes first, the peptide text is derived from it. Bridges are numbered along the chain shown (N, C = ends). [ ]: non-standard residue; d: D form. The star is where a group is joined. Phe(4-NO2) = N[C@@H](Cc1ccc([N+](=O)[O-])cc1)C(=O)O; Phe(4-CF3) = N[C@@H](Cc1ccc(C(F)(F)F)cc1)C(=O)O; Phe(4-CN) = N#Cc1ccc(C[C@H](N)C(=O)O)cc1; Phe(4-Cl) = N[C@@H](Cc1ccc(Cl)cc1)C(=O)O; 1Nal = N[C@@H](Cc1cccc2ccccc12)C(=O)O; dNMeaIle = CC[C@H](C)[C@@H](NC)C(=O)O; NMe2Val = CC(C)[C@@H](C(=O)*)N(C)C; NMeLys(Me) = CNCCCC[C@H](NC)C(=O)O; NMeF = CN[C@@H](Cc1ccccc1)C(=O)O; NMeI = CC[C@H](C)[C@H](NC)C(=O)O; NMeT = CN[C@H](C(=O)O)[C@@H](C)O; Tic = O=C(O)[C@@H]1Cc2ccccc2CN1; Lys(Me) = CNCCCC[C@H](N)C(=O)O; NMeL = CN[C@@H](CC(C)C)C(=O)O; dNMeOrn = CN[C@H](CCCN)C(=O)O; NMeK = CN[C@@H](CCCCN)C(=O)O; dHiv = CC(C)[C@@H](O)C(=O)O; NMeS = CN[C@@H](CO)C(=O)O; NMeA = CN[C@@H](C)C(=O)O; dNMeA = CN[C@H](C)C(=O)O; CF3 = FC(F)(F)*

Tested on: A549 cells
Experiment: Growth inhibition assay (MTS) in A549 cells
Format: cell-based
Details: for cytotoxicity / bioactivity in words: MTS assay
Method: Growth Inhibition AssayS3
A549 cells were cultured in Dulbecco’s modified Eagle’s medium (DMEM; Sigma) supplemented with 10% (v/v) fetal bovine serum at 37 °C in a 5% CO2-incubator. Growth inhibition assays using A549 cells were performed in 96-well plates (BD Falcon). A549 cells were seeded at 1000 cells/well in 90 μL of culture media, respectively, and were cultured for 24 h. Chemical compounds in DMSO were diluted 50-fold with the culture medium in advance. 30 μL of the chemical diluents were added.
The final volume of DMSO in the medium was equal to 0.5% (v/v). The cells under chemical treatment were incubated for a further 72 h. The wells in the plates were washed twice with the cultured medium without phenol-red. After 1-hour incubation with 100 μL of the medium, the cell culture in each well was supplemented with 20 μL of the MTS reagent (Promega), followed by incubation for additional 40 min. Absorbance at 490 nm of each well was measured using a Wallac 1420 ARVO SX multilabel counter (Perkin Elmer). Three experiments were performed per condition and the averages of inhibition rates in each condition were evaluated to determine IC50 values using the GraphPad Prism software.

[1] = read-out: IC50 (concentration for 50% growth inhibition of A549 cells), MTS assay, 72 h treatment, 0.5% DMSO, absorbance 490 nm, n = 3

Row | SMILES | IC50 [1] | also measured
1 | CC[C@H](C)[C@H]1C(=O)N[C@@H](C)C(=O)N(C)[C@@H](CC(C)C)C(=O)N[C@@H](Cc2ccc(OC)cc2)C(=O)NCCCC[C@H](N(C)C(=O)[C@H](CC(C)C)N(C)C(=O)[C@H](C)N(C)C(=O)[C@H](OC(=O)[C@H](C(C)C)N(C)C)C(C)C)C(=O)N(C)[C@@H](C)C(=O)N1C [2e] (NMe2Val-[dHiv][NMeA][NMeL][NMeK][NMeA][NMeI]A[NMeL]Y(Me); lactam 4-C) | 850 ± 20 nM | 
2 | CC[C@H](C)[C@@H]1C(=O)N[C@@H](C)C(=O)N(C)[C@@H](CC(C)C)C(=O)N[C@@H](Cc2ccc(OC)cc2)C(=O)N(C)CCCC[C@H](N(C)C(=O)[C@H](CC(C)C)N(C)C(=O)[C@H](C)N(C)C(=O)[C@H](OC(=O)[C@H](C(C)C)N(C)C)C(C)C)C(=O)N(C)[C@@H](C)C(=O)N1C [9b] (NMe2Val-[dHiv][NMeA][NMeL][NMeLys(Me)][NMeA][dNMeaIle]A[NMeL]Y(Me); lactam 4-C) | > 10000 nM | 
3 | CC[C@H](C)[C@H]1C(=O)N[C@@H](C)C(=O)N(C)[C@@H](CC(C)C)C(=O)N[C@@H](Cc2ccc(Cl)cc2)C(=O)N(C)CCCC[C@H](N(C)C(=O)[C@H](CC(C)C)N(C)C(=O)[C@H](C)N(C)C(=O)[C@H](OC(=O)[C@H](C(C)C)N(C)C)C(C)C)C(=O)N(C)[C@@H](C)C(=O)N1C [10f] (NMe2Val-[dHiv][NMeA][NMeL][NMeLys(Me)][NMeA][NMeI]A[NMeL][Phe(4-Cl)]; lactam 4-C) | 710 ± 190 nM | 
4 | CC[C@H](C)[C@H]1C(=O)N[C@@H](C)C(=O)N(C)[C@@H](CC(C)C)C(=O)N[C@@H](Cc2ccc(OC)cc2)C(=O)N(C)CCCC[C@H](N(C)C(=O)[C@H](CC(C)C)N(C)C(=O)[C@H](C)N(C)C(=O)[C@H](OC(=O)[C@H](C(C)C)N(C)C)C(C)C)C(=O)N(C)[C@@H](C)C(=O)N1C [2a, [MeAla^3, MeLys(Me)^5, MeAla^6]-CbA] (NMe2Val-[dHiv][NMeA][NMeL][NMeLys(Me)][NMeA][NMeI]A[NMeL]Y(Me); lactam 4-C) |  | times less active than the natural product 1 (ratio of IC50 values to 1): approximately 300 times
5 | CC[C@H](C)[C@@H]1NC(=O)[C@H](C)N(C)C(=O)[C@@H](N(C)C(=O)[C@H](CC(C)C)N(C)C(=O)[C@H](C)N(C)C(=O)[C@H](OC(=O)[C@H](C(C)C)N(C)C)C(C)C)CCCCN(C)C(=O)[C@H](Cc2ccc(OC)cc2)NC(=O)[C@H](CC(C)C)N(C)C(=O)[C@H](C)NC1=O [8e] (NMe2Val-[dHiv][NMeA][NMeL][NMeLys(Me)][NMeA]IA[NMeL]Y(Me); lactam 4-C) |  | fold decrease in cytotoxicity compared with peptide 2a (ratio of IC50 values to 2a): nine-fold or more lower
6 | CC[C@H](C)[C@H]1C(=O)N[C@@H](C)C(=O)N(C)[C@@H](CC(C)C)C(=O)N[C@@H](Cc2ccc([N+](=O)[O-])cc2)C(=O)N(C)CCCC[C@H](N(C)C(=O)[C@H](CC(C)C)N(C)C(=O)[C@H](C)N(C)C(=O)[C@H](OC(=O)[C@H](C(C)C)N(C)C)C(C)C)C(=O)N(C)[C@@H](C)C(=O)N1C [10b] (NMe2Val-[dHiv][NMeA][NMeL][NMeLys(Me)][NMeA][NMeI]A[NMeL][Phe(4-NO2)]; lactam 4-C) | 1100 ± 200 nM | 
7 | CC[C@H](C)[C@H]1C(=O)N[C@@H](C)C(=O)N(C)[C@@H](CC(C)C)C(=O)N[C@@H](Cc2ccc(OC)cc2)C(=O)NCCC[C@@H](N(C)C(=O)[C@H](CC(C)C)N(C)C(=O)[C@H](C)N(C)C(=O)[C@H](OC(=O)[C@H](C(C)C)N(C)C)C(C)C)C(=O)N(C)[C@@H](C)C(=O)N1C [2h] (NMe2Val-[dHiv][NMeA][NMeL][dNMeOrn][NMeA][NMeI]A[NMeL]Y(Me); lactam 4-C) | > 10000 nM | 
8 | CC[C@H](C)[C@H]1C(=O)N[C@@H](C)C(=O)N(C)[C@@H](CC(C)C)C(=O)N[C@@H](Cc2ccc(C#N)cc2)C(=O)N(C)CCCC[C@H](N(C)C(=O)[C@H](CC(C)C)N(C)C(=O)[C@H](C)N(C)C(=O)[C@H](OC(=O)[C@H](C(C)C)N(C)C)C(C)C)C(=O)N(C)[C@@H](C)C(=O)N1C [10d] (NMe2Val-[dHiv][NMeA][NMeL][NMeLys(Me)][NMeA][NMeI]A[NMeL][Phe(4-CN)]; lactam 4-C) | 1500 ± 500 nM | 
9 | CC[C@H](C)[C@H]1C(=O)N[C@@H](C)C(=O)N(C)[C@@H](CC(C)C)C(=O)N[C@@H](Cc2ccc(C(F)(F)F)cc2)C(=O)N(C)CCCC[C@H](N(C)C(=O)[C@H](CC(C)C)N(C)C(=O)[C@H](C)N(C)C(=O)[C@H](OC(=O)[C@H](C(C)C)N(C)C)C(C)C)C(=O)N(C)[C@@H](C)C(=O)N1C [10c] (NMe2Val-[dHiv][NMeA][NMeL][NMeLys(Me)][NMeA][NMeI]A[NMeL][Phe(4-CF3)]; lactam 4-C) | 370 ± 70 nM | 
10 | CC[C@H](C)[C@H]1C(=O)N[C@@H](C)C(=O)N(C)[C@@H](CC(C)C)C(=O)N(C)[C@@H](Cc2ccccc2)C(=O)N(C)CCCC[C@H](N(C)C(=O)[C@H](CC(C)C)N(C)C(=O)[C@H](C)N(C)C(=O)[C@H](OC(=O)[C@H](C(C)C)N(C)C)C(C)C)C(=O)N(C)[C@@H](C)C(=O)N1C [10n] (NMe2Val-[dHiv][NMeA][NMeL][NMeLys(Me)][NMeA][NMeI]A[NMeL][NMeF]; lactam 4-C) | > 10000 nM | cytotoxicity / bioactivity in words: loss of bioactivity
11 | CC[C@H](C)[C@H]1C(=O)N[C@@H](C)C(=O)N(C)[C@@H](CC(C)C)C(=O)N[C@@H](Cc2ccc(OC(F)(F)F)cc2)C(=O)N(C)CCCC[C@H](N(C)C(=O)[C@H](CC(C)C)N(C)C(=O)[C@H](C)N(C)C(=O)[C@H](OC(=O)[C@H](C(C)C)N(C)C)C(C)C)C(=O)N(C)[C@@H](C)C(=O)N1C [10i] (NMe2Val-[dHiv][NMeA][NMeL][NMeLys(Me)][NMeA][NMeI]A[NMeL]Y(CF3); lactam 4-C) | 320 ± 30 nM | 
12 | CC[C@H](C)[C@H]1C(=O)N[C@@H](C)C(=O)N(C)[C@@H](CC(C)C)C(=O)N[C@H](Cc2ccc(OC)cc2)C(=O)N(C)CCCC[C@H](N(C)C(=O)[C@H](CC(C)C)N(C)C(=O)[C@H](C)N(C)C(=O)[C@H](OC(=O)[C@H](C(C)C)N(C)C)C(C)C)C(=O)N(C)[C@@H](C)C(=O)N1C [9e] (NMe2Val-[dHiv][NMeA][NMeL][NMeLys(Me)][NMeA][NMeI]A[NMeL][dY](Me); lactam 4-C) | > 10000 nM | 
13 | CC[C@H](C)[C@H]1C(=O)N[C@@H](C)C(=O)N(C)[C@@H](CC(C)C)C(=O)N[C@@H](Cc2ccc(OC)cc2)C(=O)N(C)CCC[C@@H](N(C)C(=O)[C@H](CC(C)C)N(C)C(=O)[C@H](C)N(C)C(=O)[C@H](OC(=O)[C@H](C(C)C)N(C)C)C(C)C)C(=O)N(C)[C@@H](C)C(=O)N1C [2d] | > 10000 nM | 
14 | CC[C@H](C)[C@H]1C(=O)N[C@@H](C)C(=O)N(C)[C@@H](CC(C)C)C(=O)N[C@@H](Cc2cccc3ccccc23)C(=O)N(C)CCCC[C@H](N(C)C(=O)[C@H](CC(C)C)N(C)C(=O)[C@H](C)N(C)C(=O)[C@H](OC(=O)[C@H](C(C)C)N(C)C)C(C)C)C(=O)N(C)[C@@H](C)C(=O)N1C [10p] (NMe2Val-[dHiv][NMeA][NMeL][NMeLys(Me)][NMeA][NMeI]A[NMeL][1Nal]; lactam 4-C) | 4800 ± 500 nM | 
15 | CC[C@H](C)[C@H]1C(=O)N[C@@H](C)C(=O)N(C)[C@@H](CC(C)C)C(=O)N2Cc3ccccc3C[C@H]2C(=O)N(C)CCCC[C@H](N(C)C(=O)[C@H](CC(C)C)N(C)C(=O)[C@H](C)N(C)C(=O)[C@H](OC(=O)[C@H](C(C)C)N(C)C)C(C)C)C(=O)N(C)[C@@H](C)C(=O)N1C [10o] (NMe2Val-[dHiv][NMeA][NMeL][NMeLys(Me)][NMeA][NMeI]A[NMeL][Tic]; lactam 4-C) | > 10000 nM | cytotoxicity / bioactivity in words: loss of bioactivity
16 | CC[C@H](C)[C@H]1C(=O)N[C@@H](C)C(=O)N(C)[C@@H](CC(C)C)C(=O)N[C@@H](Cc2ccc(OC)cc2)C(=O)N(C)CCCC[C@H](N(C)C(=O)[C@H](CC(C)C)N(C)C(=O)[C@H](C)N(C)C(=O)[C@H](OC(=O)[C@H](C(C)C)N(C)C)C(C)C)C(=O)N(C)[C@H](C)C(=O)N1C [9a] (NMe2Val-[dHiv][NMeA][NMeL][NMeLys(Me)][dNMeA][NMeI]A[NMeL]Y(Me); lactam 4-C) | > 10000 nM | 
17 | CC[C@H](C)[C@H]1C(=O)N[C@@H](C)C(=O)N(C)[C@@H](CC(C)C)C(=O)N[C@@H](Cc2ccc(OC)cc2)C(=O)N(C)[C@H](C)C(=O)O[C@H](C)[C@H](N(C)C(=O)[C@H](CC(C)C)N(C)C(=O)[C@H](COC)N(C)C(=O)[C@H](OC(=O)[C@H](C(C)C)N(C)C)C(C)C)C(=O)N(C)[C@@H](COC)C(=O)N1C [coibamide A] (NMe2Val-[dHiv][NMeS](Me)[NMeL][NMeT][NMeS](Me)[NMeI]A[NMeL]Y(Me)[dNMeA]; ester 4-C) |  | IC50 (read-out: IC50 (concentration for 50% growth inhibition of A549 cells), MTS assay, 72 h treatment, n = 3): 1.4 ± 0.4 nM
18 | CC[C@H](C)[C@H]1C(=O)N[C@@H](C)C(=O)N(C)[C@@H](CC(C)C)C(=O)N[C@@H](Cc2ccc(OC)cc2)C(=O)N(C)CCCC[C@H](NC(=O)[C@H](CC(C)C)N(C)C(=O)[C@H](C)N(C)C(=O)[C@H](OC(=O)[C@H](C(C)C)N(C)C)C(C)C)C(=O)N(C)[C@@H](C)C(=O)N1C [8c] (NMe2Val-[dHiv][NMeA][NMeL][Lys(Me)][NMeA][NMeI]A[NMeL]Y(Me); lactam 4-C) | 6400 ± 1700 nM | 
19 | CC[C@H](C)[C@H]1C(=O)N[C@H](C)C(=O)N(C)[C@@H](CC(C)C)C(=O)N[C@@H](Cc2ccc(OC)cc2)C(=O)N(C)CCCC[C@H](N(C)C(=O)[C@H](CC(C)C)N(C)C(=O)[C@H](C)N(C)C(=O)[C@H](OC(=O)[C@H](C(C)C)N(C)C)C(C)C)C(=O)N(C)[C@@H](C)C(=O)N1C [9c] (NMe2Val-[dHiv][NMeA][NMeL][NMeLys(Me)][NMeA][NMeI][dA][NMeL]Y(Me); lactam 4-C) | > 10000 nM | 
